Patent US11312727B1, “Macrocyclic flu endonuclease inhibitors” (Janssen BioPharma, Inc., priority 2018, dated 2022)

How the values were obtained:
in vitro = settings: human, CC50, uninfected A549 cells, CellTiter-Glo
[1] = system: Influenza strain A549 A/WSN/33 (H1N1); assay: microbe, parasite or virus in culture; type: cell-based; settings: Influenza A virus, A549, 20 h, A549 cells, influenza A/WSN/33 (H1N1), 20 hours incubation; read-out: A549_A(H1N1) EC50

Row | Structure (SMILES) | CC50 (in vitro) [nM] | EC50 [1] [nM]
1 | O=C1c2c(O)c(=O)ccn2N2CN1C1(/C=C/COc3ccccc3[C@H]2c2ccccc2)CCC1 (single isomer, unassigned) [Compound 106A, (18′*R,E)-12′-hydroxy-18′-phenyl-6′H,18′H-spiro[cyclobutane-1,9′-[10,17]methanobenzo[b]pyrido[1,2-f][1]oxa[5,6,9]triazacyclotridecine]-11′,13′-dione] | > 200 | 3.5
2 | O=C1c2c(O)c(=O)ccn2N2CN1C/C=C\COc1c(ccc(F)c1F)[C@H]2c1ccccc1C(F)F (single isomer, unassigned) [Compound 165A, (18*R,Z)-18-(2-(difluoromethyl)phenyl)-3,4-difluoro-12-hydroxy-6,9-dihydro-18H-10,17-methanobenzo[b]pyrido[1,2-f][1]oxa[5,6,9]triazacyclotridecine-11,13-dione] | > 100 | 7.2
3 | CC(C)[C@H]1/C=C/COc2c(F)cccc2[C@@H](c2ccccc2)N2CN1C(=O)c1c(O)c(=O)ccn12 (single isomer, unassigned) [Compound 124AA, (9*S,18*R,*E)-4-fluoro-12-hydroxy-9-isopropyl-18-phenyl-6,9-dihydro-18H-10,17-methanobenzo[b]pyrido[1,2-f][1]oxa[5,6,9]triazacyclotridecine-11,13-dione] | > 200 | > 100
4 | O=C1c2c(O)c(=O)ccn2N2CN1C1(/C=C/COc3cc(F)c(F)c4c3[C@@H]2c2ncccc2SC4)CCC1 (single isomer, unassigned) [Compound 168A, (21a′*R,*E)-24′,25′-difluoro-16′-hydroxy-6′,21a′-dihydro-10′H-spiro[cyclobutane-1,13′-[7,8](epiprop[1]en[1]yl[3]ylidene)[14,21]methanopyrido[1,2-f]pyrido[2′,3′:6,7]thiepino[4,5-c][1]oxa[5,6,9]triazacyclotridecine]-15′,17′-dione] | > 100 | > 50
5 | CC[C@H]1/C=C/COc2c(Cl)cccc2[C@H](c2ccccc2)N2CN1C(=O)c1c(O)c(=O)ccn12 (single isomer, unassigned) [Compound 98AA, (9*S,18*S,E)-4-chloro-9-ethyl-12-hydroxy-18-phenyl-6,9-dihydro-18H-10,17-methanobenzo[b]pyrido[1,2-f][1]oxa[5,6,9]triazacyclotridecine-11,13-dione] | > 1000 | > 500
6 | COc1ccccc1[C@H]1c2cccc(F)c2OC/C=C\CN2CN1n1ccc(=O)c(O)c1C2=O (single isomer, unassigned) [Compound 117B, (18*S,*Z)-4-fluoro-12-hydroxy-18-(2-methoxyphenyl)-6,9-dihydro-18H-10,17-methanobenzo[b]pyrido[1,2-f][1]oxa[5,6,9]triazacyclotridecine-11,13-dione] | > 200 | > 100
7 | O=C1c2c(O)c(=O)ccn2N2CN1C/C=C\COc1cccc3c1[C@@H]2c1ccccc1SC3 [Compound 46A, (21R,Z)-16-hydroxy-6,10,13,21a-tetrahydro-7,8-(epiprop[1]en[1]yl[3]ylidene)-14,21-methanobenzo[6,7]thiepino[4,5-c]pyrido[1,2-f][1]oxa[5,6,9]triazacyclotridecine-15,17-dione] | > 2000 | 64
8 | O=C1c2c(O)c(=O)ccn2N2CN1C1(/C=C\COc3cc(F)c(F)c4c3[C@H]2c2ccccc2SC4)CC1 (single isomer, unassigned) [Compound 108D] | > 200 | 0.9
9 | COC[C@@H]1/C=C/COc2c(ccc(F)c2F)[C@@H](c2ccccc2)N2CN1C(=O)c1c(O)c(=O)ccn12 (single isomer, unassigned) [Compound 153BA, (9*S,18*R,*E)-3,4-difluoro-12-hydroxy-9-(methoxymethyl)-18-phenyl-6,9-dihydro-18H-10,17-methanobenzo[b]pyrido[1,2-f][1]oxa[5,6,9]triazacyclotridecine-11,13-dione] | > 100 | 4.2
10 | CC[C@H]1/C=C/COc2c(Cl)cccc2[C@@H](c2ccccc2)N2CN1C(=O)c1c(O)c(=O)ccn12 (single isomer, unassigned) [Compound 98BA, (9*S,18*R,E)-4-chloro-9-ethyl-12-hydroxy-18-phenyl-6,9-dihydro-18H-10,17-methanobenzo[b]pyrido[1,2-f][1]oxa[5,6,9]triazacyclotridecine-11,13-dione] | 26400 | 830
11 | O=C1c2c(O)c(=O)ccn2N2CN1C/C=C\COc1ccccc1[C@@H]2c1ccccc1F (single isomer, unassigned) [Compound 36A, (18*R,Z)-18-(2-fluorophenyl)-12-hydroxy-6,9-dihydro-18H-10,17-methanobenzo[b]pyrido[1,2-f][1]oxa[5,6,9]triazacyclotridecine-11,13-dione] | > 2000 | 15
12 | Cc1ccc2c(c1F)OC/C=C\CN1CN([C@H]2c2ccccc2)n2ccc(=O)c(O)c2C1=O (single isomer, unassigned) [Compound 135B, (18*S,Z)-4-fluoro-12-hydroxy-3-methyl-18-phenyl-6,9-dihydro-18H-10,17-methanobenzo[b]pyrido[1,2-f][1]oxa[5,6,9]triazacyclotridecine-11,13-dione] | > 200 | > 100
13 | CC[C@@H]1/C=C/COc2c(ccc(Cl)c2F)[C@H](c2ccccc2)N2CN1C(=O)c1c(O)c(=O)ccn12 (single isomer, unassigned) [Compound 170AB, (9*R,18*S,E)-3-chloro-9-ethyl-4-fluoro-12-hydroxy-18-phenyl-6,9-dihydro-18H-10,17-methanobenzo[b]pyrido[1,2-f][1]oxa[5,6,9]triazacyclotridecine-11,13-dione] | > 100 | > 50
14 | O=C1c2c(O)c(=O)ccn2N2CN1C/C=C\COc1ccccc1[C@@H]2c1ccc(F)c(F)c1 (single isomer, unassigned) [Compound 45B, (18*S,Z)-18-(3,4-difluorophenyl)-12-hydroxy-6,9-dihydro-18H-10,17-methanobenzo[b]pyrido[1,2-f][1]oxa[5,6,9]triazacyclotridecine-11,13-dione] | > 200 | 14
15 | CC[C@@H]1/C=C/COc2c(ccc(Cl)c2Cl)C(c2ccccc2)N2CN1C(=O)c1c(O)c(=O)ccn12 (single isomer, unassigned) [Compound 121AA, (9*R,18*R,*E)-3,4-dichloro-9-ethyl-12-hydroxy-18-phenyl-6,9-dihydro-18H-10,17-methanobenzo[b]pyrido[1,2-f][1]oxa[5,6,9]triazacyclotridecine-11,13-dione] | > 200 | 3.5
16 | O=C1c2c(O)c(=O)ccn2N2CN1C/C=C/COc1cccc3c1[C@H]2c1ccccc1S(=O)(=O)C3 [Compound 82, (17aS,E)-12-hydroxy-2,6,9,17a-tetrahydro-3,4-(epiprop[1]en[1]yl[3]ylidene)-10,17-methanobenzo[6,7]thiepino[4,5-c]pyrido[1,2-f][1]oxa[5,6,9]triazacyclotridecine-11,13-dione 1,1-dioxide] | > 1000 | 71
17 | O=C1c2c(O)c(=O)ccn2N2CN1C1(/C=C/COc3ccccc3[C@H]2c2ccccc2)CC1 [Compound 79B, (18′R,E)-12′-hydroxy-18′-phenyl-6′H,18′H-spiro[cyclopropane-1,9′-[10,17]methanobenzo[b]pyrido[1,2-f][1]oxa[5,6,9]triazacyclotridecine]-11′,13′-dione] | > 1000 | 6
18 | O=C1c2c(O)c(=O)ccn2N2CN1[C@H](C(F)F)/C=C/COc1cccc3c1[C@@H]2c1ccccc1SC3 (single isomer, unassigned) [Compound 163BB, (9*S,17a*R,*E)-9-(difluoromethyl)-12-hydroxy-2,6,9,17a-tetrahydro-3,4-(epiprop[1]en[1]yl[3]ylidene)-10,17-methanobenzo[6,7]thiepino[4,5-c]pyrido[1,2-f][1]oxa[5,6,9]triazacyclotridecine-11,13-dione] | > 100 | > 50
19 | CC[C@@H]1/C=C/COc2cc(F)c(F)c3c2[C@H](c2ccccc2SC3)N2CN1C(=O)c1c(O)c(=O)ccn12 (single isomer, unassigned) [Compound 126AB, (9*R,17a*R,E)-9-ethyl-24,25-difluoro-12-hydroxy-2,6,9,17a-tetrahydro-3,4-(epiprop[1]en[1]yl[3]ylidene)-10,17-methanobenzo[6,7]thiepino[4,5-c]pyrido[1,2-f][1]oxa[5,6,9]triazacyclotridecine-11,13-dione] | > 200 | > 100
20 | CC[C@H]1/C=C\COc2cccc3c2[C@H](c2ccccc2SC3)N2CN1C(=O)c1c(O)c(=O)ccn12 [Compound 92AA, (13S,21aR,Z)-13-ethyl-16-hydroxy-6,10,13,21a-tetrahydro-7,8-(epiprop[1]en[1]yl[3]ylidene)-14,21-methanobenzo[6,7]thiepino[4,5-c]pyrido[1,2-f][1]oxa[5,6,9]triazacyclotridecine-15,17-dione] | > 1000 | 108
21 | CC(C)[C@H]1/C=C/COc2c(ccc(F)c2F)[C@@H](c2ccccc2)N2CN1C(=O)c1c(O)c(=O)ccn12 (single isomer, unassigned) [Compound 128AB, (9*S,18*R,*E)-3,4-difluoro-12-hydroxy-9-isopropyl-18-phenyl-6,9-dihydro-18H-10,17-methanobenzo[b]pyrido[1,2-f][1]oxa[5,6,9]triazacyclotridecine-11,13-dione] | > 200 | 65
22 | O=C1c2c(O)c(=O)ccn2N2CN1C/C=C\COc1c(Cl)cccc1[C@H]2c1ccccc1 (single isomer, unassigned) [Compound 75A, (18*R,Z)-4-chloro-12-hydroxy-18-phenyl-6,9-dihydro-18H-10,17-methanobenzo[b]pyrido[1,2-f][1]oxa[5,6,9]triazacyclotridecine-11,13-dione] | > 2000 | 269
